Measurements taken from patent US20100022509A1, “Inhibitors of MshC and Homologs Thereof, and Methods of Identifying Same” (priority 2006, published 2010).
Like-named read-outs stand apart in the source and are kept apart here.

Biological target: T1, MshC (Mycobacterium tuberculosis, UniProt P9WJM9)
T1 sequence (P9WJM9 1-414): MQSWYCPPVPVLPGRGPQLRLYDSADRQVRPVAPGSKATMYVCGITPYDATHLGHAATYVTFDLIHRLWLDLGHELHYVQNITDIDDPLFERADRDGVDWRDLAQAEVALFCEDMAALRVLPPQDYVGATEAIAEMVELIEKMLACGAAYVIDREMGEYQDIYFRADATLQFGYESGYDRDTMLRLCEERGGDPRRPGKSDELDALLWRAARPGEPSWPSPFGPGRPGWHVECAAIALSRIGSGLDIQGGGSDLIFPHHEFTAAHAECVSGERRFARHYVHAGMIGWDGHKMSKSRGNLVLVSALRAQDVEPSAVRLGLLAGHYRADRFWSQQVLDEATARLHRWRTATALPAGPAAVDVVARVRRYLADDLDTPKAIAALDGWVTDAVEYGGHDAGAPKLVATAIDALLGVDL
Assay: biochemical
Type: biochemical, M. tuberculosis

| SMILES | IC50 (IC50) | inhibition of MshC in words, 1,3-diaminopropyl residue with remote amino residue capable of protonation | inhibition of MshC in words, compounds grouped by X (X=S, X=SO, X=SO2) | inhibition of MshC in words, Z is a benzyl moiety bearing one or more halogens | other results |
| --- | --- | --- | --- | --- | --- |
| O=C(NCCCN1CCN(Cc2ccccc2)CC1)c1ccc2c(c1)N(Cc1ccccc1)C(=O)c1ccccc1S2(=O)=O [Inhibitor 83-52] | 2500 ± 1200 µM |  |  |  | inhibition of MshC in words, compounds lacking the basic amino group or with groups in excess of 10 carbons on the remote amino residue: little or no inhibition |
| CC(C)CN(CCCNC(=O)c1ccc2c(c1)N(Cc1ccccc1)C(=O)c1ccccc1S2(=O)=O)CC(C)C [Inhibitor 83-53] | > 3000 µM |  |  |  |  |
| CN(CCNC(=O)c1ccc2c(c1)N(Cc1ccccc1)C(=O)c1ccccc1S2(=O)=O)C1CCCCC1 [Inhibitor 83-54] | 510 ± 80 µM | measurable inhibition | Significant inhibition |  | inhibition of MshC in words, Z benzyl moiety with methyl groups in the 2,5 positions or unsubstituted: Weak but detectable inhibition |
| O=C(NCCCSC1CCCCC1)c1ccc2c(c1)N(Cc1ccccc1)C(=O)c1ccccc1S2(=O)=O [Inhibitor 83-55] | > 3000 µM |  |  |  | inhibition of MshC in words, compounds lacking the basic amino group or with groups in excess of 10 carbons on the remote amino residue: little or no inhibition |
| O=C(NCCN1CCN(Cc2ccccc2)CC1)c1ccc2c(c1)N(Cc1cccc(Cl)c1)C(=O)c1ccccc1[S+]2[O-] (centres unmarked) [Inhibitor 83-56] | > 3000 µM |  |  |  | inhibition of MshC in words, compounds lacking the basic amino group or with groups in excess of 10 carbons on the remote amino residue: little or no inhibition |
| CC1CCCN(CCCNC(=O)c2ccc3c(c2)N(Cc2cccc(Cl)c2)C(=O)c2ccccc2S3(=O)=O)C1 (centres unmarked) [Inhibitor 83-57] | ~1000 µM |  |  |  |  |
| O=C(NCCCC1CCCCCC1)c1ccc2c(c1)N(Cc1cccc(Cl)c1)C(=O)c1ccccc1S2(=O)=O [Inhibitor 83-58] | ≥ 500 µM |  |  | Measurable inhibition |  |
| CN(CCCNC(=O)c1ccc2c(c1)N(Cc1cccc(Cl)c1)C(=O)c1ccccc1S2(=O)=O)c1ccccc1 [Inhibitor 83-59] | > 3000 µM |  |  |  |  |
| CCCCN(C)CCCNC(=O)c1ccc2c(c1)N(Cc1cccc(Cl)c1)C(=O)c1ccccc1[S+]2[O-] (centres unmarked) [Inhibitor 83-60] |  |  | Significant inhibition |  |  |
| O=C(NCCCSC1CCCCC1)c1ccc2c(c1)N(Cc1cccc(Cl)c1)C(=O)c1ccccc1[S+]2[O-] (centres unmarked) [Inhibitor 83-61] | ~1000 µM |  |  |  | inhibition of MshC in words, compounds lacking the basic amino group or with groups in excess of 10 carbons on the remote amino residue: little or no inhibition |
| O=C(NCCN1CCN(Cc2ccccc2)CC1)c1ccc2c(c1)N(Cc1cccc(Cl)c1)C(=O)c1ccccc1[S+]2[O-] (centres unmarked) [Inhibitor 83-62] | 2100 ± 900 µM |  |  |  | inhibition of MshC in words, compounds lacking the basic amino group or with groups in excess of 10 carbons on the remote amino residue: little or no inhibition |
| CN(CCCNC(=O)c1ccc2c(c1)N(Cc1cccc(Cl)c1)C(=O)c1ccccc1[S+]2[O-])c1ccccc1 (centres unmarked) [Inhibitor 83-63] | > 2000 µM |  |  |  |  |
| CC1CCCN(CCCNC(=O)c2ccc3c(c2)N(Cc2cccc(Cl)c2)C(=O)c2ccccc2[S+]3[O-])C1 (centres unmarked) [Inhibitor 83-64] | 150 ± 30 µM | measurable inhibition | Significant inhibition | Measurable inhibition |  |
| CC1CC(C)CN(CCCNC(=O)c2ccc3c(c2)N(Cc2cccc(Cl)c2)C(=O)c2ccccc2[S+]3[O-])C1 (centres unmarked) [Inhibitor 83-65] |  | measurable inhibition | Significant inhibition | Measurable inhibition |  |
| CCC1CCCN(CCCNC(=O)c2ccc3c(c2)N(Cc2cccc(Cl)c2)C(=O)c2ccccc2[S+]3[O-])C1 (centres unmarked) [Inhibitor 83-66] | 80 ± 20 µM | measurable inhibition | Significant inhibition | Measurable inhibition |  |
| CC(C)CN(CCCNC(=O)c1ccc2c(c1)N(Cc1cccc(Cl)c1)C(=O)c1ccccc1[S+]2[O-])CC(C)C (centres unmarked) [Inhibitor 83-67] | ~3000 µM |  |  |  |  |
| O=C(NC1CCN(Cc2ccccc2)CC1)c1ccc2c(c1)N(Cc1cccc(Cl)c1)C(=O)c1ccccc1[S+]2[O-] (centres unmarked) [Inhibitor 83-68] | 1500 ± 500 µM |  |  |  |  |
| O=C(NCCN1CCN(Cc2ccccc2)CC1)c1ccc2c(c1)N(Cc1cccc(Cl)c1)C(=O)c1ccccc1[S+]2[O-] (centres unmarked) [Inhibitor 83-69] | 2500 ± 700 µM |  |  |  | inhibition of MshC in words, compounds lacking the basic amino group or with groups in excess of 10 carbons on the remote amino residue: little or no inhibition |
| O=C(NCCCN1CCOCC1)c1ccc2c(c1)N(Cc1cccc(Cl)c1)C(=O)c1ccccc1[S+]2[O-] (centres unmarked) [Inhibitor 83-70] | 470 ± 130 µM | measurable inhibition |  | Measurable inhibition | inhibition of MshC in words, compounds grouped by X: Significant inhibition |

| SMILES | IC50 (IC50) | inhibition of MshC in words, 1,3-diaminopropyl residue with remote amino residue capable of protonation | inhibition of MshC in words, compounds grouped by X (X=S, X=SO, X=SO2) | inhibition of MshC in words, Z is a benzyl moiety bearing one or more halogens | other results |
| --- | --- | --- | --- | --- | --- |
| O=C(NCCCN1CCCC1)c1ccc2c(c1)N(Cc1cccc(Cl)c1)C(=O)c1ccccc1[S+]2[O-] (centres unmarked) [Inhibitor 83-72] | 97 ± 26 µM | measurable inhibition | Significant inhibition | Measurable inhibition |  |
| CCCN(CCC)CCCNC(=O)c1ccc2c(c1)N(Cc1cccc(Cl)c1)C(=O)c1ccccc1[S+]2[O-] (centres unmarked) [Inhibitor 83-73] | ~200 µM | measurable inhibition | Significant inhibition | Measurable inhibition |  |
| CCCCSCCCNC(=O)c1ccc2c(c1)N(Cc1cccc(Cl)c1)C(=O)c1ccccc1[S+]2[O-] (centres unmarked) [Inhibitor 83-74] | > 3000 µM |  |  |  | inhibition of MshC in words, compounds lacking the basic amino group or with groups in excess of 10 carbons on the remote amino residue: little or no inhibition |
| O=C(NCCN1CCCCCC1)c1ccc2c(c1)N(Cc1cccc(Cl)c1)C(=O)c1ccccc1[S+]2[O-] (centres unmarked) [Inhibitor 83-75] | ~80 µM | measurable inhibition | Significant inhibition | Measurable inhibition |  |
| CCCCN(CCCNC(=O)c1ccc2c(c1)N(Cc1cccc(Cl)c1)C(=O)c1ccccc1[S+]2[O-])Cc1ccccc1 (centres unmarked) [Inhibitor 83-76] | ≥ 3000 µM |  |  |  |  |
| CC1CC(C)CN(CCCNC(=O)c2ccc3c(c2)N(Cc2cccc(Cl)c2)C(=O)c2ccccc2S3(=O)=O)C1 (centres unmarked) [Inhibitor 83-77] | 2300 ± 700 µM |  |  |  |  |
| O=C(NCCCN1CCCC1)c1ccc2c(c1)N(Cc1cccc(Cl)c1)C(=O)c1ccccc1S2(=O)=O [Inhibitor 83-78] | ~500 µM | measurable inhibition | Significant inhibition | Measurable inhibition |  |
| O=C(NCCN1CCN(Cc2ccccc2)CC1)c1ccc2c(c1)N(Cc1cccc(Cl)c1)C(=O)c1ccccc1S2(=O)=O [Inhibitor 83-79] | > 3000 µM |  |  |  | inhibition of MshC in words, compounds lacking the basic amino group or with groups in excess of 10 carbons on the remote amino residue: little or no inhibition |
| O=C(NCC1CCN(Cc2ccccc2)CC1)c1ccc2c(c1)N(Cc1cccc(Cl)c1)C(=O)c1ccccc1S2(=O)=O [Inhibitor 83-80] | > 3000 µM |  |  |  |  |
| CC(C)CN(CCCNC(=O)c1ccc2c(c1)N(Cc1cccc(Cl)c1)C(=O)c1ccccc1S2(=O)=O)CC(C)C [Inhibitor 83-81] | > 3000 µM |  |  |  |  |
| O=C(NCCCN1CCOCC1)c1ccc2c(c1)N(Cc1cccc(Cl)c1)C(=O)c1ccccc1S2(=O)=O [Inhibitor 83-82] | ~3000 µM |  |  |  |  |
| CCCN(CCC)CCCNC(=O)c1ccc2c(c1)N(Cc1cccc(Cl)c1)C(=O)c1ccccc1S2(=O)=O [Inhibitor 83-83] | 980 ± 40 µM | measurable inhibition | Significant inhibition | Measurable inhibition |  |
| CN(C)CCCNC(=O)c1ccc2c(c1)N(Cc1ccc(Cl)cc1)C(=O)c1ccccc1[S+]2[O-] (centres unmarked) [Inhibitor 1028] |  | measurable inhibition |  | Measurable inhibition | inhibition of MshC in words, compounds grouped by X: Significant inhibition; IC50 (IC50, μM): 335 ± 15 µM |
| CC1CCCN(CCCNC(=O)c2ccc3c(c2)N(Cc2ccc(F)cc2)C(=O)c2ccccc2[S+]3[O-])C1 (centres unmarked) [Inhibitor 1051] |  | measurable inhibition | Significant inhibition | Measurable inhibition | IC50 (IC50, μM): 710 ± 20 µM |
| Cc1ccc(C)c(CN2C(=O)c3ccccc3[S+]([O-])c3ccc(C(=O)NCCCN4CCCC4)cc32)c1 (centres unmarked) [Inhibitor 1061] |  | measurable inhibition | Significant inhibition |  | inhibition of MshC in words, Z benzyl moiety with methyl groups in the 2,5 positions or unsubstituted: Weak but detectable inhibition; IC50 (IC50, μM): 1600 ± 300 µM |
| CCCCN(C)CCCNC(=O)c1ccc2c(c1)N(Cc1cc(C)ccc1C)C(=O)c1ccccc1[S+]2[O-] (centres unmarked) [Inhibitor 1062] |  | measurable inhibition |  |  | inhibition of MshC in words, Z benzyl moiety with methyl groups in the 2,5 positions or unsubstituted: Weak but detectable inhibition; IC50 (IC50, μM): ~2500 µM |
| CCN1C(=O)c2ccccc2[S+]([O-])c2ccc(C(=O)NCCCN3CCOCC3)cc21 (centres unmarked) [Inhibitor 1075] |  |  |  |  | IC50 (IC50, μM): > 3000 µM |
| CCN1C(=O)c2ccccc2[S+]([O-])c2ccc(C(=O)NCCN3CCCCCC3)cc21 (centres unmarked) [Inhibitor 1081] |  |  |  |  | IC50 (IC50, μM): > 3000 µM |
